The kinetic solubility is solubility judged after dilution from a stock solution rather than from solid.

Values after ≈ are worked out from the molar mass of the structure shown.

For the data set the following is noted: buffer; pH 7.4; 200.0 µM.
On to `O=C(Cc1cccc2ccccc12)Nc1c(F)cccc1F`, for which the kinetic solubility came out at 1.2 µg/mL (≈ 4.04 µM).

On to `O=C(COC(=O)c1ccccc1O)NC(c1ccccc1)c1ccccc1`, for which the solubility (kinetic) worked out at 5.9 µg/mL (≈ 16.3 µM). In turn, `Cc1cc(C(=O)N2CCC(Cc3ccccc3)CC2)c(C)o1` gave a kinetic solubility of 41.6 µg/mL (≈ 140 µM). Take `Cc1ccc(NC(=O)c2ccco2)c(NC(=O)COc2ccccc2)c1`: the kinetic solubility is 5.3 µg/mL (≈ 15.1 µM).

For the molecule `O=C(COC(=O)c1ccc(Br)cc1)NC1CCCC1`, the kinetic solubility was determined as 5.4 µg/mL (≈ 16.6 µM). In the case of `Cc1ccc(NC(=O)CO/N=C(\N)c2ccccc2)cc1C`, the solubility (kinetic) came to 5 µg/mL (≈ 16.8 µM). Molecule `c1ccc(Cc2nc3ccccc3[nH]2)cc1` yielded a kinetic solubility of over 31.2 µg/mL. `Clc1ccc(CSC(Cn2ccnc2)c2ccc(Cl)cc2Cl)cc1.O=[N+]([O-])O` (stereo unspecified): the solubility (kinetic) turned out to be 48.7 µg/mL. Turning to `Cc1cc(SCC(=O)c2cccc([N+](=O)[O-])c2)nc(=O)[nH]1`, the solubility (kinetic) came out at 24.3 µg/mL (≈ 79.6 µM).

Take `COC(=O)C1CSC(C)(C)C(=O)N1` (stereo unspecified): the solubility (kinetic) is over 30.5 µg/mL.

The molecule `O=[N+]([O-])c1ccccc1OC/C(=N\O)c1ccccc1` came in with a kinetic solubility of over 40.8 µg/mL. Molecule `Cc1ccnc(NC(=O)c2ccc(Cl)s2)c1` registered a kinetic solubility of 16.1 µg/mL (≈ 63.7 µM). Molecule `CN(CC(=O)Nc1cccc(C#N)c1)Cc1ccc(Cl)cc1` gave a solubility (kinetic) of 27.9 µg/mL (≈ 88.9 µM). With `CN(C)c1ccc(CN2CCC(C(N)=O)CC2)cc1.O=C(O)C(=O)O` the figure was over 52.7 µg/mL. The result for `COc1ccc(NC(=O)c2cc([N+](=O)[O-])ccc2N2CCCCC2)cc1OC` reads 14 µg/mL (≈ 36.3 µM). For the molecule `COc1ccc(NC(=O)c2ccccc2)c([N+](=O)[O-])c1`, the kinetic solubility came out at 2.1 µg/mL (≈ 7.71 µM).

With `Nc1cc(Cl)ccc1C(=O)OCC(=O)NCC1CCCO1` (stereo unspecified), the solubility (kinetic) is over 46.9 µg/mL. With `CN=C(Nc1cccc(S(=O)(=O)N2CCOCC2)c1)c1ccccc1`, the kinetic solubility came out at 17.2 µg/mL (≈ 47.9 µM). In the case of `O=C(NCc1cccc(F)c1)C1CCC(=O)N(C2CC2)C1` (stereo unspecified), the kinetic solubility is over 43.6 µg/mL. Molecule `CC(C)(C)CNc1cc(N2CCOCC2)ccc1[N+](=O)[O-]` gave a solubility (kinetic) of 1.8 µg/mL (≈ 6.14 µM).

On to `Fc1ccc(CNc2nc(-c3cccnc3)nc3ccccc23)cc1`, for which the solubility (kinetic) is 5.6 µg/mL (≈ 17 µM). With `CSC(=NCc1ccco1)NC#N` the figure was 27.8 µg/mL (≈ 142 µM). `Cc1cc(C)n(NC(=S)NC2CCCCC2)c(=O)c1C#N` came in with a solubility (kinetic) of over 45.7 µg/mL. The result for `CSc1ccc(CN(C)CC(=O)NCCc2ccccc2)cc1` reads over 49.3 µg/mL. As for `COCC(=O)Nc1cc(C)cn(Cc2ccccc2Cl)c1=O`, the solubility (kinetic) came to 41.4 µg/mL (≈ 129 µM). For `COc1ccccc1C(=O)NC(=O)COC(=O)C1CCC1`, the kinetic solubility was over 43.7 µg/mL. For `Cc1cc(SCC(=O)N(C)C2CCCCC2)nc2ccccc12`, the kinetic solubility amounted to 19.4 µg/mL (≈ 59.1 µM). `Cc1ccc(NC(=O)CCSc2ccccc2)c(C)c1` came in with a solubility (kinetic) of under 0.6 µg/mL. Take `O=C(c1ccccc1)n1c(=O)c(F)cn(COCCBr)c1=O`: the kinetic solubility was over 55.7 µg/mL. Take `COc1ccc(NC(=O)C2CCCN(C(=O)Nc3ccc(F)cc3)C2)cc1` (stereo unspecified): the kinetic solubility was 12.4 µg/mL (≈ 33.4 µM).

In the case of `O=C(COC(=O)c1ccc(Br)o1)Nc1ccc(F)cc1[N+](=O)[O-]`, the kinetic solubility came to 8.2 µg/mL (≈ 21.2 µM).

On to `CC1(C)c2ccccc2N(CC(N)=O)C12C=Cc1ccccc1O2` (stereo unspecified), for which the kinetic solubility came to 12.6 µg/mL (≈ 39.3 µM).

Take `COc1ccc(OC)c([C@@H](O)[C@H](C)NC(C)(C)C)c1.Cl`: the solubility (kinetic) is over 45.6 µg/mL. `COC(=O)c1ccc(NC(=O)c2cc(Cl)ccc2OC)cc1` displayed a kinetic solubility of under 0.7 µg/mL. In turn, `Cc1ccc(S(=O)(=O)N(C)CC(=O)NCCCn2ccnc2)cc1` came in with a solubility (kinetic) of 48.6 µg/mL (≈ 139 µM).

`Cc1cc(C(=O)NCC(c2ccco2)N(C)C)ccc1[N+](=O)[O-]` (stereo unspecified) had a kinetic solubility of 39.7 µg/mL (≈ 125 µM). For `O=C(/C=C/c1ccccc1)Oc1coc(CSc2ncccn2)cc1=O`, the kinetic solubility was determined as 10.2 µg/mL (≈ 27.8 µM).

For the molecule `CNc1c(-n2cc(C(=O)OC)c(C(=O)OC)c2C(=O)OC)c(=O)n(C)c(=O)n1C`, the kinetic solubility was 56.7 µg/mL (≈ 139 µM). The result for `O=C(Nc1ccc(Cl)cc1F)c1cccc2ccccc12` reads 1 µg/mL (≈ 3.34 µM).

`S=c1ccc2ccccc2[nH]1`: the kinetic solubility was determined as 22.6 µg/mL (≈ 140 µM). For the molecule `CCOc1ccccc1Nc1nc(N)nc(CN2CCCCC2C)n1` (stereo unspecified), the kinetic solubility is over 51.4 µg/mL. On to `CC(=O)CCSc1ncnc2sc(-c3ccccc3)cc12`, for which the solubility (kinetic) turned out to be 0.6 µg/mL (≈ 1.91 µM).

`COCCCNC(=O)c1cc(C(=O)Cc2ccccc2)c[nH]1` showed a kinetic solubility of over 45.1 µg/mL. With `Brc1ccc(-c2ncc3ccccn23)cc1` the figure was 29.3 µg/mL (≈ 107 µM); with `COc1ccc(OCC(=O)Nc2ccc3oc(=O)ccc3c2)cc1`, 3.3 µg/mL (≈ 10.1 µM). As for `O=C(O)c1ccccc1C(=O)N(c1ccccc1)c1ccccc1`, the kinetic solubility came to 46.8 µg/mL (≈ 147 µM). Against the preceding molecule, the solubility kinetic is about 14-fold higher. With `COCCNc1nc(SC)nc2sc3c(c12)CCN(C)C3` the figure was 46.5 µg/mL (≈ 143 µM); with `O=Cc1cccnc1SCc1ccccc1`, 15.5 µg/mL (≈ 67.6 µM). The result for `N#C/C(=C\Nc1ccc(Cl)cn1)S(=O)(=O)c1ccccc1` reads under 0.2 µg/mL; that for `CS(=O)(=O)N1CCc2cc(C(=O)Nc3cccc([N+](=O)[O-])c3)ccc21`, under 0.3 µg/mL; that for `N#Cc1ccc(COc2cccnc2[N+](=O)[O-])cc1`, 6.3 µg/mL (≈ 24.7 µM).

The values above are taken from PubChem BioAssay AID1996.
